From ChEMBL document CHEMBL5137054, “Xyloketal B Reverses Nutritional Hepatic Steatosis, Steatohepatitis, and Liver Fibrosis through Activation of the PPARα/PGC1α Signaling Pathway” (J Nat Prod, 2022)
Calls of active or inactive are those of the source. The rule behind the calls is not given here.

What was measured:
Mus musculus [1] = assay: Reduction in hepatic steatosis in HFD-induced C57BL/6J mouse model of NAFL assessed as reduction in serum triglyceride level at 20 to 40 mg/kg/day, ip administered from week 7 to week 12; type: functional, organism-based; conditions: dose 20-40 mg/kg/day, time 6.0 weeks
Mus musculus [2] = assay: In vivo activation of PPARalpha/PGC1alpha pathway in HFD-induced C57BL/6J mouse model of NAFL assessed as increase in PPARalpha expression in liver administered intraperitoneally from week 7 to week 12 by immunoblotting analysis; type: functional, organism-based; conditions: dose 20-40 mg/kg/day, route ip, time 6.0 weeks, DDE = dose-dependent effect
[3] = Toxicity in C57BL/6J mouse assessed as effect on lipid droplets in hepatocytes at 40 mg/kg, ip by H&E staining analysis; type: organism-based; conditions: in vivo
[4] = Toxicity in C57BL/6J mouse assessed as effect on serum glucose level at 40 mg/kg, ip; type: organism-based; conditions: in vivo
[5] = Toxicity in C57BL/6J mouse assessed as effect on relative liver weight at 40 mg/kg, ip; type: organism-based; conditions: in vivo
Mus musculus [6] = assay: Reduction in hepatic steatosis in HFD-induced C57BL/6J mouse model of NAFL assessed as reduction in serum LDL level at 20 to 40 mg/kg/day, ip administered from week 7 to week 12; type: functional, organism-based; conditions: dose 20-40 mg/kg/day, time 6.0 weeks

Compound: C[C@H]1CO[C@]2(C)Oc3cc(O)c4c(c3C[C@H]12)O[C@@]1(C)OC[C@H](C)[C@H]1C4
- Activity (Mus musculus [1]): Active
- Activity (Mus musculus [2]): Dde
- Activity [3]: Non-Toxic
- Activity [4]: Non-Toxic
- Activity [5]: Non-Toxic
- Activity (Mus musculus [6]): Active
